Measured values as given in ChEMBL document CHEMBL3124787, “Discovery of novel bis-oxazolidinone compounds as potential potent and selective antitubercular agents” (Bioorg Med Chem Lett, 2014).
Values after ≈ are worked out from the molar mass of the structure shown.

What was measured:
[1] = Lipophilicity, log P of the compound by HPLC analysis; format: physicochemical
[2] = tested on: Mycobacterium tuberculosis; experiment: Antitubercular activity against Mycobacterium tuberculosis H37RV ATCC 27294 assessed as growth inhibition after 3 to 11 days by microdilution method; format: functional
[3] = Aqueous solubility of the compound by HPLC analysis; format: physicochemical
Staphylococcus aureus [4] = experiment: Antibacterial activity against methicillin-resistant Staphylococcus aureus ATCC 33591 assessed as growth inhibition after 18 hrs by broth microdilution method; format: functional; conditions: ATCC 33591, 18 h
Pseudomonas aeruginosa = experiment: Antibacterial activity against Pseudomonas aeruginosa ATCC 27853 assessed as growth inhibition after 18 hrs by broth microdilution method; format: functional; conditions: ATCC 27853, 18 h
Staphylococcus aureus [5] = experiment: Antibacterial activity against methicillin-resistant Staphylococcus aureus ATCC 43300 assessed as growth inhibition after 18 hrs by broth microdilution method; format: functional; conditions: ATCC 43300, 18 h
Staphylococcus aureus [6] = experiment: Antibacterial activity against methicillin-susceptible Staphylococcus aureus CMCC 26003 assessed as growth inhibition after 18 hrs by broth microdilution method; format: functional; conditions: CMCC 26003, 18 h
Staphylococcus aureus [7] = experiment: Antibacterial activity against methicillin-susceptible Staphylococcus aureus ATCC 29213 assessed as growth inhibition after 18 hrs by broth microdilution method; format: functional; conditions: ATCC 29213, 18 h
Staphylococcus aureus [8] = experiment: Antibacterial activity against methicillin-susceptible Staphylococcus aureus ATCC 6538 assessed as growth inhibition after 18 hrs by broth microdilution method; format: functional; conditions: ATCC 6538, 18 h
Escherichia coli = experiment: Antibacterial activity against Escherichia coli ATCC 25922 assessed as growth inhibition after 18 hrs by broth microdilution method; format: functional; conditions: ATCC 25922, 18 h
[9] = tested on: Mycolicibacterium smegmatis; experiment: Antibacterial activity against Mycobacterium smegmatis assessed as growth inhibition after 18 hrs by broth microdilution method; format: functional
Staphylococcus aureus [10] = experiment: Antibacterial activity against methicillin-susceptible Staphylococcus aureus ATCC 25923 assessed as growth inhibition after 18 hrs by broth microdilution method; format: functional; conditions: ATCC 25923, 18 h

SMILES	logP [1]	MIC [2]	solubility [3]	MIC99 (Staphylococcus aureus [4])	MIC99 (Pseudomonas aeruginosa)	MIC99 (Staphylococcus aureus [5])	MIC99 (Staphylococcus aureus [6])	MIC99 (Staphylococcus aureus [7])	MIC99 (Staphylococcus aureus [8])	MIC99 (Escherichia coli)	MIC99 [9]	MIC99 (Staphylococcus aureus [10])
CC(=O)NC[C@H]1CN(c2ccc(OC[C@@H]3CNC(=O)O3)c(F)c2)C(=O)O1	0.01	8 µg/mL (≈ 21.8 µM)	2720 µM (≈ 999 µg/mL)									
CC(=O)NC[C@H]1CN(c2ccc(OC[C@H](O)CNc3ccccc3)c(F)c2)C(=O)O1	0.59		296 µM (≈ 124 µg/mL)	8 µg/mL (≈ 19.2 µM)	> 32 µg/mL	8 µg/mL (≈ 19.2 µM)	8 µg/mL (≈ 19.2 µM)	8 µg/mL (≈ 19.2 µM)	4 µg/mL (≈ 9.58 µM)	> 32 µg/mL	> 64 µg/mL	8 µg/mL (≈ 19.2 µM)
CC(=O)NC[C@H]1CN(c2ccc(OC[C@H](O)CNc3ccccn3)c(F)c2)C(=O)O1	1.6		35100 µM (≈ 14700 µg/mL)	> 32 µg/mL	> 32 µg/mL	> 32 µg/mL	> 32 µg/mL	> 32 µg/mL	> 32 µg/mL	> 32 µg/mL	> 64 µg/mL	> 32 µg/mL
CC(=O)NC[C@H]1CN(c2ccc(OC[C@H](O)CNc3cc(C(F)(F)F)cc(C(F)(F)F)c3)c(F)c2)C(=O)O1	3.01		22 µM (≈ 12.2 µg/mL)	> 32 µg/mL	> 32 µg/mL	> 32 µg/mL	> 32 µg/mL	> 32 µg/mL	32 µg/mL (≈ 57.8 µM)	> 32 µg/mL	> 64 µg/mL	> 32 µg/mL
CC(=O)NC[C@H]1CN(c2ccc(N3CCOCC3)c(F)c2)C(=O)O1 [LINEZOLID]		0.25 µg/mL (≈ 0.741 µM)		2 µg/mL (≈ 5.93 µM)	> 32 µg/mL	2 µg/mL (≈ 5.93 µM)	2 µg/mL (≈ 5.93 µM)	2 µg/mL (≈ 5.93 µM)	1 µg/mL (≈ 2.96 µM)	> 32 µg/mL		2 µg/mL (≈ 5.93 µM)
NNC(=O)c1ccncc1 [ISONIAZID]		0.0625 µg/mL (≈ 0.456 µM)									4 µg/mL (≈ 29.2 µM)	
CC(=O)NC[C@H]1CN(c2ccc(OC[C@@H](O)CNc3cc(C(F)(F)F)cc(C(F)(F)F)c3)c(F)c2)C(=O)O1	3.1			32 µg/mL (≈ 57.8 µM)	> 32 µg/mL	16 µg/mL (≈ 28.9 µM)	16 µg/mL (≈ 28.9 µM)	16 µg/mL (≈ 28.9 µM)	8 µg/mL (≈ 14.5 µM)	> 32 µg/mL	16 µg/mL (≈ 28.9 µM)	16 µg/mL (≈ 28.9 µM)
CC(=O)NC[C@H]1CN(c2ccc(OC[C@@H](O)CNc3ccc(C#N)cc3)c(F)c2)C(=O)O1	2.12		47 µM (≈ 20.8 µg/mL)	16 µg/mL (≈ 36.2 µM)	> 32 µg/mL	8 µg/mL (≈ 18.1 µM)	8 µg/mL (≈ 18.1 µM)	16 µg/mL (≈ 36.2 µM)	4 µg/mL (≈ 9.04 µM)	> 32 µg/mL	16 µg/mL (≈ 36.2 µM)	16 µg/mL (≈ 36.2 µM)
CC(=O)NC[C@H]1CN(c2ccc(OC[C@H](O)CNc3ccc(C#N)cc3)c(F)c2)C(=O)O1	1.29		69 µM (≈ 30.5 µg/mL)	16 µg/mL (≈ 36.2 µM)	> 32 µg/mL	16 µg/mL (≈ 36.2 µM)	8 µg/mL (≈ 18.1 µM)	16 µg/mL (≈ 36.2 µM)	8 µg/mL (≈ 18.1 µM)	> 32 µg/mL	32 µg/mL (≈ 72.3 µM)	16 µg/mL (≈ 36.2 µM)
O=C1O[C@H](COc2ccccc2F)CN1c1ccccc1	3.19	32 µg/mL (≈ 111 µM)	441 µM (≈ 127 µg/mL)									
CC(=O)NC[C@H]1CN(c2ccc(OC[C@@H](O)CNc3cccnc3)c(F)c2)C(=O)O1	0.02		3040 µM (≈ 1270 µg/mL)	> 32 µg/mL	> 32 µg/mL	> 32 µg/mL	> 32 µg/mL	> 32 µg/mL	> 32 µg/mL	> 32 µg/mL	> 64 µg/mL	> 32 µg/mL
COc1ccc(NC[C@H](O)COc2ccc(N3C[C@H](CNC(C)=O)OC3=O)cc2F)cc1	0.95	8 µg/mL (≈ 17.9 µM)	56 µM (≈ 25.1 µg/mL)	16 µg/mL (≈ 35.8 µM)	> 32 µg/mL	8 µg/mL (≈ 17.9 µM)	4 µg/mL (≈ 8.94 µM)	8 µg/mL (≈ 17.9 µM)	4 µg/mL (≈ 8.94 µM)	> 32 µg/mL	64 µg/mL (≈ 143 µM)	8 µg/mL (≈ 17.9 µM)
CC(=O)NC[C@H]1CN(c2ccc(OC[C@H](O)CNc3ccncc3)c(F)c2)C(=O)O1	0.02		24600 µM (≈ 10300 µg/mL)	> 32 µg/mL	> 32 µg/mL	> 32 µg/mL	> 32 µg/mL	> 32 µg/mL	> 32 µg/mL	> 32 µg/mL	> 64 µg/mL	> 32 µg/mL
